Patent US8530680B2, “System and method for controlling growth of microorganisms with brominated furanones” (Syracuse University, priority 2008, dated 2013)

Key:
[1] = test system: orf19.2175 (CPD1) expression in C. albicans; test: RNA dot blotting of C. albicans genes after BF1 treatment; assay type: cell-based, Candida albicans; settings: 3 μg/mL BF1
Protocol: To corroborate the microarray results, four genes were checked with RNA dot blotting for their expression levels under the same conditions tested in microarray analysis: orf19.5604 (MDR1), orf19.2175 (CPD1), orf19.2896 (SOU1) and orf19.5565. The total RNA of a control sample without furanone was used to synthesize complementary DNA (cDNA) using OneStep RT-PCR Kit (QIAGEN Inc.) by following the manufacture's protocol. The annealing temperature was optimized based on the primers and was performed at 50° C. for 1 minute in each cycle. The length of the template cDNA was 457 bp, 364 bp, 455 bp and 423 bp for orf19.5604 (MDR1), orf19.2175 (CPD1), orf19.2896 (SOU1) and orf19.5565, respectively.
The DNA probes labeled with Digoxigenin (DIG)-dUTP were then generated using the same primer sets and PCR DIG Probe Synthesis Kit (Roche® Applied Science, Mannheim, Germany) by following the manufacture's protocol except that the annealing temperature was 48° C. for orf19.2175 and orf19.5565, and 51° C. for orf19.2896 and orf19.5604. Total RNA was isolated from cultures treated under the same conditions as in DNA microarray experiments. […] The light signal was recorded using Biomax X-ray films from Kodak (Rochester, N.Y.). […]

[2] = test system: six fungal strains (Gloeophyllum trabeum, Chaetomium globosum, Trametes versicolor); test: Fungal growth on MEA plates with furanone, statements for all six strains; assay type: cell-based; settings: 1 to 60 μg/mL
Protocol: This Example examines the effect of brominated furanones on the growth of fungi associated with damage to building material. Six fungal strains were the subject of these experiments; Gloeophyllum trabeum (strains GT598 and GT599), Chaetomium globosum (wildtype strain and CG572), and Trametes versicolor (strains TV7B2-59 and TV57MAD277). The species were developed on 2% Malt-Extract Agar (MEA) plates and stored inverted at 4° C. The stocks were refreshed by streaking new plates every two months.
The brominated and non-brominated furanones were added to MAE agar plates at different concentrations. The brominated furanones were dissolved in either ethanol (“EtOH”) or methanol (“MeOH”) as stock solutions, as shown in Table 5. The non-brominated furanones were purchased from Sigma (St. Louis, Mo.). The furanone stocks were stored at 4° C.
MAE agar plates containing the same amounts of ethanol/methanol were also prepared as negative controls to eliminate any solvent effects. The plates were prepared using either 90 mm or 60 mm petri dishes and were stored inverted at 4° C. until use.
Different concentrations of furanones were studied to compare their antifungal activities. The plates were inoculated with the six fungal strains using a platinum loop and were incubated upside down at 30° C. for 7 days to monitor the growth. The initial screening was performed using a single 60 μg/mL furanone concentration.

C. albicans = C. albicans viability assay based on colony-forming unit (CFU) counting; assay type: cell-based, Candida albicans; settings: 60 μg/mL, 6 hours in 0.85% NaCl buffer
Protocol: To further examine the effect of brominated furanones on fungal growth and understand whether BFs are fungicidal agents to C. albicans, BF1 was used as the representative compound in a viability assay based on colony-forming unit (“CFU”) counting. An overnight culture of C. albicans was sub-cultured in 100 mL of SD medium to an initial OD600 of 0.005 and was grown for 24 hours. The cells were then harvested by centrifugation at 4,500 rpm for 5 minutes at room temperature and washed twice with 0.85% NaCl buffer. Then the cells were resuspended in 0.85% NaCl buffer and supplemented with 0, or 60 μg/mL BF1, BF8, BF9, BF10, BF11, BF12, or BF14 to an OD600 of 2.0 using 17×100-mm polystyrene test tubes (Fisher Scientific). After incubation at 30° C. for 6 hours with shaking at 200 rpm, the treated cells were spread on Yeast Extract Peptone Dextrose (YPD) plates containing 20 g/L peptone, 10 g/L yeast extract, 20 g/L dextrose and 15 g/L agar. The colony-forming units (CFUs) on the plates were counted after 24 hours of incubation at 30° C. to evaluate the killing of C. albicans by furanones. Duplicate samples for each furanone were tested and five agar plates were counted for each sample.

SMILES | induction of gene CPD1 in RNA dot blotting [1] [fold] | growth inhibition of the six fungal strains, comparison [2] | reduction of CFU (C. albicans) [%]
CCCCC1=C(Br)/C(=C/Br)OC1=O [BF1, 4-bromo-5Z-(bromomethylene)-3-butylfuran-2-one] | 10 | effective at preventing growth in low concentrations | 
O=C1OC(=C(Br)Br)C=C1C(Br)Br [BF10, 3-(dibromomethyl)-5-(dibromomethylene)furan-2-one] |  |  | 100
CC1=C(Br)/C(=C/Br)OC1=O [BF8, 4-bromo-5Z-(bromomethylene)-3-methylfuran-2-one] |  |  | 50
